Earlier results on 2 molecules are cited in patent US20230372318A1, “METHODS FOR TREATING A SUBJECT HAVING MULTIPLE SYSTEM ATROPHY” (Theravance Biopharma R&D IP, LLC, priority 2022, published 2023).

The subject of data set [1] is patients with central autonomic failure. As to conditions: cited from earlier work.
The subject of data set [2] is nOH in MSA patients and non-MSA patients. As to conditions: cited from earlier work.
For data set [3], the system named is adult patients with symptomatic nOH. The following applies: prescribing information, black box warning; cited from earlier work.

Like-named read-outs stand apart in the source and are kept apart here.

For `CNCC[C@@H](Oc1ccccc1C)c1ccccc1` [Atomoxetine], the “Effect on blood pressure” value in data set [1] was “increase blood pressure”. The “Effect against nOH” value is listed as “ineffective” in data set [2] (MSA patients) and “showing improvement” in data set [2] (non-MSA patients).
With `N[C@H](C(=O)O)[C@H](O)c1ccc(O)c(O)c1` [droxidopa, L-threo-3-4-dihydroxyphenylserine], the Main side effect entry in data set [3] is on record as “supine hypertension”.
